{"source": "patent US11331299B2", "about": "“Medicinal use of serrulatane diterpenes” (The University of Sydney, priority 2016, dated 2022)", "assay_in_all_cases": "biochemical", "format_in_all_cases": "binding", "key": {"[1]": {"biological_target": "receptors (Bioprint panel) (Homo sapiens, UniProt P04150)", "details": "read-out: % Inhibition of Control Specific Binding"}, "[2]": {"biological_target": "receptors (Bioprint panel) (Homo sapiens, UniProt P08172)", "details": "[…] M2 (h) (antagonist radioligand); 10 μM; read-out: % Inhibition of Control Specific Binding"}, "[3]": {"biological_target": "receptors (Bioprint panel) (Homo sapiens, UniProt P21452)", "details": "NEUROKININ NK2 (h) (agonist radioligand); 10 μM; read-out: % Inhibition of Control Specific Binding"}, "[4]": {"biological_target": "receptors (Bioprint panel) (Homo sapiens, UniProt P08913)", "sequence (P08913 whole entry)": "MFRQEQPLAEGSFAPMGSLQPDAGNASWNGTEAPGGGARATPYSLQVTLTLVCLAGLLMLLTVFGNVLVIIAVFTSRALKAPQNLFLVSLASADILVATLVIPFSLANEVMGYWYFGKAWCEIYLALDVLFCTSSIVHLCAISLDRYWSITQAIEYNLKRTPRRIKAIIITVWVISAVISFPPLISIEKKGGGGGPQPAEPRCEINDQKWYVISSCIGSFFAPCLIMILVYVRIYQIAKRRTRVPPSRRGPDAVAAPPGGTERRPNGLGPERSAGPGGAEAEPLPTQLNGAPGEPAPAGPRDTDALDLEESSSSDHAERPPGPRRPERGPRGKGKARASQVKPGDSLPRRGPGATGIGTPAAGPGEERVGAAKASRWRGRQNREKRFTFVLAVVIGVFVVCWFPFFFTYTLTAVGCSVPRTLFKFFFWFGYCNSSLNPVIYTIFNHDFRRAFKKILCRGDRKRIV", "details": "[…] alpha 2A (h) (antagonist radioligand); 10 μM; read-out: % Inhibition of Control Specific Binding"}, "[5]": {"biological_target": "receptors (Bioprint panel) (Homo sapiens, UniProt P41597)", "sequence (P41597 whole entry)": "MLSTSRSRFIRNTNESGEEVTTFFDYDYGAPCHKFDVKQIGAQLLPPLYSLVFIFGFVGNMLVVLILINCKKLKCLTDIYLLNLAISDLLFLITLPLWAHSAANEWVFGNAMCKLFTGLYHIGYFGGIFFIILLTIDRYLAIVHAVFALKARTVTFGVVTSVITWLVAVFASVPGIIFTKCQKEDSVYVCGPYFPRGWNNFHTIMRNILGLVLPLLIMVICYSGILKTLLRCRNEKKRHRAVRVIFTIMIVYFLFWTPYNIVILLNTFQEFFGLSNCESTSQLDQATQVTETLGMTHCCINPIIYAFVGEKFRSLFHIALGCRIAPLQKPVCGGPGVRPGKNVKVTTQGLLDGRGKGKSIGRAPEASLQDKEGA", "details": "CHEMOKINES CCR2 (h) (agonist radioligand); 10 μM; read-out: % Inhibition of Control Specific Binding"}, "[6]": {"biological_target": "receptors (Bioprint panel) (Homo sapiens, UniProt P08908)", "sequence (P08908 whole entry)": "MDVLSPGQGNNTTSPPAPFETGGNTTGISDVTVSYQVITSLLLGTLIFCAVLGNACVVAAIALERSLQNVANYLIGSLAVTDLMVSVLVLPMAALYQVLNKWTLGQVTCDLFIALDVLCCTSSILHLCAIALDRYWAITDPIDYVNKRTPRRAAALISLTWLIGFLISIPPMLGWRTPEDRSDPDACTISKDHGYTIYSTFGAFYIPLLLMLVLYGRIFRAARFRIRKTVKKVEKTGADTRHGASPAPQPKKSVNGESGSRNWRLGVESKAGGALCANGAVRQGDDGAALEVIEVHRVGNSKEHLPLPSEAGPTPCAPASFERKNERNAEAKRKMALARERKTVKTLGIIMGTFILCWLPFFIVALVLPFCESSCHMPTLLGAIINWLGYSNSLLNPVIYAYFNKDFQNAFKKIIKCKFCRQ", "details": "read-out: % Inhibition of Control Specific Binding"}, "[7]": {"biological_target": "receptors (Bioprint panel) (Homo sapiens, UniProt P35348)", "details": "[…] alpha 1A (h) (antagonist radioligand); 10 μM; read-out: % Inhibition of Control Specific Binding"}, "[8]": {"biological_target": "receptors (Bioprint panel) (Homo sapiens, UniProt Q01959)", "sequence (Q01959 whole entry)": "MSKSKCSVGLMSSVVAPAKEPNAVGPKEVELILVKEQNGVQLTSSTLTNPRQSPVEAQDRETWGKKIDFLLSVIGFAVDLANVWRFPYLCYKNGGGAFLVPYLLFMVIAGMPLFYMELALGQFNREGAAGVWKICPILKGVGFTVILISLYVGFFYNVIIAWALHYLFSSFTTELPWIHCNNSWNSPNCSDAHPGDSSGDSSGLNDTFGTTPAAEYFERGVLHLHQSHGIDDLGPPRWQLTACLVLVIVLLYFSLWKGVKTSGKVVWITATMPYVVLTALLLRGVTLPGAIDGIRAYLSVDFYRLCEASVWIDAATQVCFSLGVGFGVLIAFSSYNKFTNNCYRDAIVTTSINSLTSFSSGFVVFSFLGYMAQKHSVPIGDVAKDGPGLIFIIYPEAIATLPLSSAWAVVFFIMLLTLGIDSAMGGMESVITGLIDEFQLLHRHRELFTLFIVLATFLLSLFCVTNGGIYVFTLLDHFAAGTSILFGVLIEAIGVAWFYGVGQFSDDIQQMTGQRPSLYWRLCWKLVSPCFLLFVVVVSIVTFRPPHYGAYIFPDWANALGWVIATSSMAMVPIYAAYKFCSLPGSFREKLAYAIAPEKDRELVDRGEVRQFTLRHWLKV", "details": "dopamine transporter (h) (antagonist radioligand); 10 μM; read-out: % Inhibition of Control Specific Binding"}, "[9]": {"biological_target": "receptors (Bioprint panel) (Homo sapiens, UniProt P35414)", "details": "APJ (apelin) (h) (agonist radioligand); 10 μM; read-out: % Inhibition of Control Specific Binding"}, "[10]": {"biological_target": "receptors (Bioprint panel) (Homo sapiens, UniProt P14867)", "sequence (P14867 28-456)": "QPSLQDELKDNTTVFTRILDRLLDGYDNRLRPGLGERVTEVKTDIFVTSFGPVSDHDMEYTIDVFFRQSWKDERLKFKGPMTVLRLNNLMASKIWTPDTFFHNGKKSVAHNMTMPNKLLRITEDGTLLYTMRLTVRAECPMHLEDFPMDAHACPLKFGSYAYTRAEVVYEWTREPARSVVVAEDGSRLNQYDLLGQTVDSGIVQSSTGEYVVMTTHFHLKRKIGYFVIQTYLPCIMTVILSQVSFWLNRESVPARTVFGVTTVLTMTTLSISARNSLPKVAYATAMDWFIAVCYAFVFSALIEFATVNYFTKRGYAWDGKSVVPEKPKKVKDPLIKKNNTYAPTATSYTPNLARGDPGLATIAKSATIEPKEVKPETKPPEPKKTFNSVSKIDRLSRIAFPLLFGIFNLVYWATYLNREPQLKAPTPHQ", "details": "GABAA1 (h) (alpha 1, beta 2, gamma 2) (agonist radioligand); 10 μM; read-out: % Inhibition of Control Specific Binding"}, "[11]": {"biological_target": "receptors (Bioprint panel) (Homo sapiens, UniProt Q99705)", "details": "MELANIN-CONCENTRATING-HORMONE MCH1 (h) (agonist radioligand); 10 μM; read-out: % Inhibition of Control Specific Binding"}, "[12]": {"biological_target": "receptors (Bioprint panel) (Rattus norvegicus, UniProt Q02294)", "details": "Ca2+ channel (N) (antagonist radioligand); 10 μM; read-out: % Inhibition of Control Specific Binding"}, "[13]": {"biological_target": "receptors (Bioprint panel) (Homo sapiens, UniProt P30872)", "sequence (P30872 whole entry)": "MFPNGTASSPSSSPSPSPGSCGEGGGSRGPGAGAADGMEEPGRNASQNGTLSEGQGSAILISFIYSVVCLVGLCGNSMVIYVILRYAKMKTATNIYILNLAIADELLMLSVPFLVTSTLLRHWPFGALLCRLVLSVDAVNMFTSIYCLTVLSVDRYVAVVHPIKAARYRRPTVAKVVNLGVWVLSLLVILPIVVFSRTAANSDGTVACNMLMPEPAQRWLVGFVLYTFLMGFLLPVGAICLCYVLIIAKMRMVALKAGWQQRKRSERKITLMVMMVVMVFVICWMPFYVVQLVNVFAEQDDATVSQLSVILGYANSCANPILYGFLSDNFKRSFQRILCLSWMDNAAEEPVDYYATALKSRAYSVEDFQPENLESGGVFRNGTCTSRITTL", "details": "SOMASTATIN sst1 (h) (agonist radioligand); 10 μM; read-out: % Inhibition of Control Specific Binding"}, "[14]": {"biological_target": "receptors (Bioprint panel) (Homo sapiens, UniProt P28335)", "sequence (P28335 33-458)": "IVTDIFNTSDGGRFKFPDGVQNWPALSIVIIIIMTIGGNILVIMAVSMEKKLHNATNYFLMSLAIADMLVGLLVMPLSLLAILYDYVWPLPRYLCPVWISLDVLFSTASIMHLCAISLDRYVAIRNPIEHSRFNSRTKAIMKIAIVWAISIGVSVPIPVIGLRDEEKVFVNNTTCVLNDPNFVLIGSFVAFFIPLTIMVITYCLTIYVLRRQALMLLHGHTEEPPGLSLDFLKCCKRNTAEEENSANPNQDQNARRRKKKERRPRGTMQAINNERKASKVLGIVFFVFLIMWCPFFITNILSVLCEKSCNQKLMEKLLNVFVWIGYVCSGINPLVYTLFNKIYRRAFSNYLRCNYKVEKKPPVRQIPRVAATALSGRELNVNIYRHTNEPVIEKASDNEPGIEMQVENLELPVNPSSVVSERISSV", "details": "read-out: % Inhibition of Control Specific Binding"}, "[15]": {"biological_target": "receptors (Bioprint panel) (Rattus norvegicus, UniProt P28564)", "sequence (P28564 whole entry)": "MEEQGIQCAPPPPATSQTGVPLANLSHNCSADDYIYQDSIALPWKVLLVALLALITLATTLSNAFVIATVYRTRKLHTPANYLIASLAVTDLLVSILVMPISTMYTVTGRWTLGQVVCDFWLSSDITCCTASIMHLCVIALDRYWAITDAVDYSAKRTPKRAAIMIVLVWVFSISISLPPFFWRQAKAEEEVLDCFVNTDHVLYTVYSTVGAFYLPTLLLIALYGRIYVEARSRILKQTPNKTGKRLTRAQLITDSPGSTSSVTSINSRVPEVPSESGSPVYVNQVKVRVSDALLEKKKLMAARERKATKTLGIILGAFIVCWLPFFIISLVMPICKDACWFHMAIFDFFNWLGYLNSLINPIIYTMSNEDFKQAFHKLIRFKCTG", "details": "read-out: % Inhibition of Control Specific Binding"}, "[16]": {"biological_target": "receptors (Bioprint panel) (Homo sapiens, UniProt P46098)", "details": "read-out: % Inhibition of Control Specific Binding"}, "[17]": {"biological_target": "receptors (Bioprint panel) (Homo sapiens, UniProt P02708)", "details": "NICOTINIC […] N muscle-type (h) (antagonist radioligand); 10 μM; read-out: % Inhibition of Control Specific Binding"}, "[18]": {"biological_target": "receptors (Bioprint panel) (Homo sapiens, UniProt P18089)", "details": "[…] alpha 2B (h) (antagonist radioligand); 10 μM; read-out: % Inhibition of Control Specific Binding"}, "[19]": {"biological_target": "receptors (Bioprint panel) (Homo sapiens, UniProt P20309)", "sequence (P20309 whole entry)": "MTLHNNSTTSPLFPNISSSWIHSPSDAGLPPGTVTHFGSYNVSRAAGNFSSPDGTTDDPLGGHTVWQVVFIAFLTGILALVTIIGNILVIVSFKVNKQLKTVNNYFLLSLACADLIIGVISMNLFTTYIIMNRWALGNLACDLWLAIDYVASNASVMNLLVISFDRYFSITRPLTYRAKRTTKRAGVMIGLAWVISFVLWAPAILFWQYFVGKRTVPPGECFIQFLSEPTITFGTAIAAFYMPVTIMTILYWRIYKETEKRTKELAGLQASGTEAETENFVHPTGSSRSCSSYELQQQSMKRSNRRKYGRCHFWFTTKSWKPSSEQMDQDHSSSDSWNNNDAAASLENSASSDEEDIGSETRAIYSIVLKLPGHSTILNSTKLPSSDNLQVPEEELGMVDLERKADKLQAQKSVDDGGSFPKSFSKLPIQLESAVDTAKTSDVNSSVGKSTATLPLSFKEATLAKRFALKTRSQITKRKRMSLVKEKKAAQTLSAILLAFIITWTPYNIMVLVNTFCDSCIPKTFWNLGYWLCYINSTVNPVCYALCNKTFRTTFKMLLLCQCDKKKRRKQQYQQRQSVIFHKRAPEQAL", "details": "[…] M3 (h) (antagonist radioligand); 10 μM; read-out: % Inhibition of Control Specific Binding"}, "[20]": {"biological_target": "receptors (Bioprint panel) (Homo sapiens, UniProt P41595)", "sequence (P41595 whole entry)": "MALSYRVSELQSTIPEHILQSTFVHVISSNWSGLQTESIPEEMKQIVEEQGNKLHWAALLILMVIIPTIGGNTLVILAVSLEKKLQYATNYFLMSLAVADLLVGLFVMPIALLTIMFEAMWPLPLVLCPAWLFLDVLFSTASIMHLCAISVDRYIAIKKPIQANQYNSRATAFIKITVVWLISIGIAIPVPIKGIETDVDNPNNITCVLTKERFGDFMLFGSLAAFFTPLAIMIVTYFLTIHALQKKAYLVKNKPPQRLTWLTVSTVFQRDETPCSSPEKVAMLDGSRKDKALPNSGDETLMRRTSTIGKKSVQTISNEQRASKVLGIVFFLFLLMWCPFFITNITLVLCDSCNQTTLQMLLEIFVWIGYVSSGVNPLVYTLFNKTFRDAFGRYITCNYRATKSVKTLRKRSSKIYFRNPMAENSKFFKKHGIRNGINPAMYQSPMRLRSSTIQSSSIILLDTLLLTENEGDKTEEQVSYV", "details": "read-out: % Inhibition of Control Specific Binding"}, "[21]": {"biological_target": "receptors (Bioprint panel) (Homo sapiens, UniProt P32239)", "details": "CHOLECYSTOKININ CCK2 (CCKB) (h) (agonist radioligand); 10 μM; read-out: % Inhibition of Control Specific Binding"}, "[22]": {"test_system": "receptors (Bioprint panel)", "details": "10 μM"}, "[23]": {"biological_target": "receptors (Bioprint panel) (Homo sapiens, UniProt P08588)", "details": "[…] beta 1 (h) (agonist radioligand); 10 μM; read-out: % Inhibition of Control Specific Binding"}, "[24]": {"biological_target": "receptors (Bioprint panel) (Homo sapiens, UniProt P43119)", "sequence (P43119 whole entry)": "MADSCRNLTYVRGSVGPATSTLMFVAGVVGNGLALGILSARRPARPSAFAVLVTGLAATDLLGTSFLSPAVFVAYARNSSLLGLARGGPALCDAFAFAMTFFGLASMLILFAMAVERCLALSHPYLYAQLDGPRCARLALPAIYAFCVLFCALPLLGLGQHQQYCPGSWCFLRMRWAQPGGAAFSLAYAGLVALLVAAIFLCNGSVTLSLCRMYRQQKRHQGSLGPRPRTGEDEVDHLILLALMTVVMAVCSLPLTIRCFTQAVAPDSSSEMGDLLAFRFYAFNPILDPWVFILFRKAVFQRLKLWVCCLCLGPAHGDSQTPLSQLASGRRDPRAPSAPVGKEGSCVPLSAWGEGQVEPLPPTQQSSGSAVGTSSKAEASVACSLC", "details": "[…] (PGI2) (h) (agonist radioligand); 10 μM; read-out: % Inhibition of Control Specific Binding"}, "[25]": {"biological_target": "receptors (Bioprint panel) (Homo sapiens, UniProt P25021)", "details": "HISTAMINE H2 (h) (antagonist radioligand); 10 μM; read-out: % Inhibition of Control Specific Binding"}}, "data": [{"compound": "CC(C)=CCC[C@H](CO)[C@@H]1CC[C@@H](C)c2c1cc(C)c(O)c2O", "note": "[Compound 1, 7,8,18-trihydroxyserrulat-14-ene]", "values": [{"measurement": "inhibition at 10 µM", "setting": "[1]", "result": 47, "unit": "%"}, {"measurement": "inhibition at 10 µM", "setting": "[2]", "result": 1, "unit": "%"}, {"measurement": "inhibition at 10 µM", "setting": "[3]", "result": 52, "unit": "%"}, {"measurement": "inhibition at 10 µM", "setting": "[4]", "result": 35, "unit": "%"}, {"measurement": "inhibition at 10 µM", "setting": "[5]", "result": 48, "unit": "%"}, {"measurement": "inhibition at 10 µM", "setting": "[6]", "result": -18, "unit": "%"}, {"measurement": "inhibition at 10 µM", "setting": "[7]", "result": 17, "unit": "%"}, {"measurement": "inhibition at 10 µM", "setting": "[8]", "result": 63, "unit": "%"}, {"measurement": "inhibition at 10 µM", "setting": "[9]", "result": 24, "unit": "%"}, {"measurement": "inhibition at 10 µM", "setting": "[10]", "result": -36, "unit": "%"}, {"measurement": "inhibition at 10 µM", "setting": "[11]", "result": -5, "unit": "%"}, {"measurement": "inhibition at 10 µM", "setting": "[12]", "result": 5, "unit": "%"}, {"measurement": "inhibition at 10 µM", "setting": "[13]", "result": 18, "unit": "%"}, {"measurement": "inhibition at 10 µM", "setting": "[14]", "result": 32, "unit": "%"}, {"measurement": "inhibition at 10 µM", "setting": "[15]", "result": 42, "unit": "%"}, {"measurement": "inhibition at 10 µM", "setting": "[16]", "result": -2, "unit": "%"}, {"measurement": "inhibition at 10 µM", "setting": "[17]", "result": 1, "unit": "%"}, {"measurement": "inhibition at 10 µM", "setting": "[18]", "result": 7, "unit": "%"}, {"measurement": "inhibition at 10 µM", "setting": "[19]", "result": -3, "unit": "%"}, {"measurement": "inhibition at 10 µM", "setting": "[20]", "result": 70, "unit": "%"}, {"measurement": "inhibition at 10 µM", "setting": "[21]", "result": 6, "unit": "%"}, {"measurement": "% Inhibition of Control Specific Binding", "setting": "[22]", "result": 11, "unit": "%"}, {"measurement": "% Inhibition of Control Specific Binding", "setting": "[22]; CYTOKINES TNF-alpha (h) (agonist radioligand)", "result": "−23", "unit": "%"}, {"measurement": "% Inhibition of Control Specific Binding", "setting": "[22]; Ca2+ channel (L, dihydropyridine site) (antagonist radioligand)", "result": 55, "unit": "%"}, {"measurement": "% Inhibition of Control Specific Binding", "setting": "[22]; Ca2+ channel (L, diltiazem site) (benzothiazepines) (antagonist radioligand)", "result": "−30", "unit": "%"}, {"measurement": "% Inhibition of Control Specific Binding", "setting": "[22]; Ca2+ channel (L, verapamil site) (phenylalkylamine) (antagonist radioligand)", "result": "−4", "unit": "%"}, {"measurement": "% Inhibition of Control Specific Binding", "setting": "[22]; Cl- channel (GABA-gated) (antagonist radioligand)", "result": 42, "unit": "%"}, {"measurement": "% Inhibition of Control Specific Binding", "setting": "[22]; GABA CHANNELS BZD (central) (agonist radioligand)", "result": "−31", "unit": "%"}, {"measurement": "% Inhibition of Control Specific Binding", "setting": "[22]; GABA transporter (antagonist radioligand)", "result": "−10", "unit": "%"}, {"measurement": "% Inhibition of Control Specific Binding", "setting": "[22]; GLUTAMATE CHANNELS AMPA (agonist radioligand)", "result": 4, "unit": "%"}, {"measurement": "% Inhibition of Control Specific Binding", "setting": "[22]; GLUTAMATE CHANNELS NMDA (antagonist radioligand)", "result": 9, "unit": "%"}, {"measurement": "% Inhibition of Control Specific Binding", "setting": "[22]; GLUTAMATE CHANNELS PCP (antagonist radioligand)", "result": "−11", "unit": "%"}, {"measurement": "% Inhibition of Control Specific Binding", "setting": "[22]; GLUTAMATE CHANNELS kainate (agonist radioligand)", "result": 15, "unit": "%"}, {"measurement": "% Inhibition of Control Specific Binding", "setting": "[22]; Na+ channel (site 2) (antagonist radioligand)", "result": 48, "unit": "%"}, {"measurement": "% Inhibition of Control Specific Binding", "setting": "[22]; SKCa channel (antagonist radioligand)", "result": 14, "unit": "%"}, {"measurement": "% Inhibition of Control Specific Binding", "setting": "[22]; Thyroid Hormone", "result": 9, "unit": "%"}, {"measurement": "inhibition at 10 µM", "setting": "[23]", "result": 19, "unit": "%"}, {"measurement": "inhibition at 10 µM", "setting": "[24]", "result": 16, "unit": "%"}, {"measurement": "inhibition at 10 µM", "setting": "[25]", "result": 37, "unit": "%"}]}]}
